Read-outs that look alike come from different tables or passages of the source.
Columns and labels:
[1] = biological target: T1, aurora-2 kinase (Homo sapiens, UniProt O14965); assay: Aurora-2 kinase inhibition assay (Kinase-Glo); format: biochemical; conditions: for degree of inhibition of aurora-2 kinase activity (rank among tested compounds): 20 μM, FIG. 10; for IC50: aurora-2 kinase, FIG. 11
T1 construct: purchased Imgenex, San Diego, Calif; host or cells: sf9 cells
T1 sequence (O14965 1-403): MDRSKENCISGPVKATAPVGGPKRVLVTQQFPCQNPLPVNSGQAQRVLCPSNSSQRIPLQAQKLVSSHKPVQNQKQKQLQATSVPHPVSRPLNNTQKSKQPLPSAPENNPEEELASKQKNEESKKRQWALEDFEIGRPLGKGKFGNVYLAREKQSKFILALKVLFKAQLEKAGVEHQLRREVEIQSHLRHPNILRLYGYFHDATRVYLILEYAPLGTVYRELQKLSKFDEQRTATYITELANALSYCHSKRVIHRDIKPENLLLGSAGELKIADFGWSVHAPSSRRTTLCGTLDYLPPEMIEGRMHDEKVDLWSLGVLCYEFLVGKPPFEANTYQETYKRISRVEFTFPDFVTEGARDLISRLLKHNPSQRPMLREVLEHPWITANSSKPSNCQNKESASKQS
Procedure: In this assay kinase activity is determined by quantifying the amount of ATP remaining in solution following the kinase reaction by measuring the light units (LU) produced by luciferase using a luminometer. Percent inhibition was determined for individual compounds by comparing luminometer readings of drug-treated reactions to controls containing no drug (DMSO control) and no Aurora-2 enzyme (ATP control) in the following equation: […]
In a 50 μl reaction, recombinant aurora-2 kinase produced in sf9 cells (Imgenex, San Diego, Calif.) was incubated at 30° C. for two hours with 62.5 μM Kemptide (Calbiochem, San Diego, Calif.), 3 μM ATP (Invitrogen, Carlsbad, Calif.) and kinase reaction buffer (40 mM Tris-HCl, 10 mM MgCl2 and 0.1 μg/μl bovine serum albumin (BSA)). This reaction was carried out in the presence of drug substances, which had been previously diluted to desired concentrations in DMSO. After incubation, 50 μl of Kinase-Glo® (Promega, Inc., Madison, Wis.) solution was added to each reaction mixture and allowed to equilibrate for 10 minutes at room temperature. Kinase-Glo solution contains luciferase enzyme and luciferin, which react with ATP to produce light. Kinase activity is determined by quantifying the amount of ATP remaining in solution following the kinase reaction by measuring the light units (LU) produced by luciferase using a luminometer (PerkinElmer, Boston, Mass.).

[2] = tested on: Akt phosphorylation in NIH 3T3 cells; assay: Immunoblot for phospho-Akt (S473); format: cell-based
Procedure: In order to evaluate these effects at the cellular level, immunoblot analysis was performed on lysates from cells treated with MP470, with or without the addition of the EGFR inhibitor Tarceva®. Lysates were assayed for general tyrosine kinase activity, as well as the specific phosphorylation of c-Met and Akt. Briefly, NIH 3T3 cells were pretreated with drugs as indicated for 4 hours, then treated with pervanadate for a further 30 minutes. Immunoblot detection was carried out with antibodies for phosphotyrosine, phospho-Met and phospho-Akt (S473), as well as total c-Met and Akt. Beta-actin was used as a loading control.

[3] = tested on: Panc-1 pancreatic cancer cells; assay: Apoptosis assay (Annexin V or TUNEL); format: cell-based; conditions: Panc1, 10 μM
Procedure: (§1) Induction of apoptosis in cancer cells is a common mechanism of action for anti-cancer agents. To determine the role of MP470 in apoptosis, tumor cells were incubated with either compound and analyzed for apoptosis using Annexin V or TUNEL assays. […] In MiaPaCa-2 cells, MP470 at […] induced 81.4% apoptosis, while at 1 μM it induced 71% apoptosis. In Panc1 cells, MP470 at 10 μM induced over a 3-fold increase in apoptotic cells compared with non-treated cells.

[4] = tested on: MiaPaCa-2 pancreatic cancer cells; assay: Apoptosis assay (Annexin V or TUNEL); format: cell-based
Procedure: as §1

[5] = biological target: cKit(D816V)(h) (Homo sapiens, UniProt P10721, D816V); assay: Kinase profile screen; format: biochemical; conditions: 1 uM
cKit(D816V)(h), sequence (P10721 26-976 D816V): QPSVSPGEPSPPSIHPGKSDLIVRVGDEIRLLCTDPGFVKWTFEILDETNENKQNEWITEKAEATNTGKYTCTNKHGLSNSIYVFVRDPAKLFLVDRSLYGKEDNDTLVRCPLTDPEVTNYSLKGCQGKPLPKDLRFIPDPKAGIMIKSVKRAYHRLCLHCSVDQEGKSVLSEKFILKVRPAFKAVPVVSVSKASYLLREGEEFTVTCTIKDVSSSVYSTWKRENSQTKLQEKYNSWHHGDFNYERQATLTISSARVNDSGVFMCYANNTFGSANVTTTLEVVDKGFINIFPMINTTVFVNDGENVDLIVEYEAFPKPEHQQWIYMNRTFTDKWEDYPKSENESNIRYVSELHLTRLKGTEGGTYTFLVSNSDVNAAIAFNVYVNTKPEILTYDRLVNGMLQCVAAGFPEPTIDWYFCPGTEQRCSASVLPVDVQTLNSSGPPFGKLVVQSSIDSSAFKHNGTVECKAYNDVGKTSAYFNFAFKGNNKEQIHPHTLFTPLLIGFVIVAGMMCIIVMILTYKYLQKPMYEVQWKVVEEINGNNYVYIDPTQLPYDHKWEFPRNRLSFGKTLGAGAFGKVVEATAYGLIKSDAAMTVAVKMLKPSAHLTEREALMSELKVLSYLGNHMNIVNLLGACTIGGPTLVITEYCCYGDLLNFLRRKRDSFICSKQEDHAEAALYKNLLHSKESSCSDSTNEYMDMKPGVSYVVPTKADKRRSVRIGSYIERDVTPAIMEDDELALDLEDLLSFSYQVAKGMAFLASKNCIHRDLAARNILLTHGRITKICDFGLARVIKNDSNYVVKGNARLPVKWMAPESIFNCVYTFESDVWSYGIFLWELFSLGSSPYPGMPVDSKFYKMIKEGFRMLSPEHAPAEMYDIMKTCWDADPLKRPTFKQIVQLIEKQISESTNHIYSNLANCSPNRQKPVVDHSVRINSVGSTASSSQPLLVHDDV
Procedure: (§2) In order to determine the specificity and potential alternative targets for MP470, kinase profile screen were performed utilizing the KinaseProfiler™ Screen (Upstate Corp) and Select Screen™ kinase profiling (Invitrogen). Between the two screens, 53 different kinases were tested, representing a broad proportion of the human kinome. MP470 was screened at a concentration of 1 μM against both wildtype and mutant kinases.

[6] = biological target: cKit(V654A)(h) (Homo sapiens, UniProt P10721, V654A); assay: Kinase profile screen; format: biochemical; conditions: 1 uM
cKit(V654A)(h), sequence (P10721 26-976 V654A): as the sequence (P10721 26-976 D816V) above, with V629A, V791D counted along it
Procedure: as §2

[7] = biological target: cKit(V560G)(h) (Homo sapiens, UniProt P10721, V560G); assay: Kinase profile screen; format: biochemical; conditions: 1 uM
cKit(V560G)(h), sequence (P10721 26-976 V560G): as the sequence (P10721 26-976 D816V) above, with V535G, V791D counted along it
Procedure: as §2

[8] = biological target: Flt3(D835Y)(h) (Homo sapiens, UniProt P36888, D835Y); assay: Kinase profile screen; format: biochemical; conditions: 1 uM
Procedure: as §2

[9] = biological target: PDGFRα(D842V)(h) (Homo sapiens, UniProt P16234, D842V); assay: Kinase profile screen; format: biochemical; conditions: 1 uM
PDGFRα(D842V)(h), sequence (P16234 24-1089 D842V): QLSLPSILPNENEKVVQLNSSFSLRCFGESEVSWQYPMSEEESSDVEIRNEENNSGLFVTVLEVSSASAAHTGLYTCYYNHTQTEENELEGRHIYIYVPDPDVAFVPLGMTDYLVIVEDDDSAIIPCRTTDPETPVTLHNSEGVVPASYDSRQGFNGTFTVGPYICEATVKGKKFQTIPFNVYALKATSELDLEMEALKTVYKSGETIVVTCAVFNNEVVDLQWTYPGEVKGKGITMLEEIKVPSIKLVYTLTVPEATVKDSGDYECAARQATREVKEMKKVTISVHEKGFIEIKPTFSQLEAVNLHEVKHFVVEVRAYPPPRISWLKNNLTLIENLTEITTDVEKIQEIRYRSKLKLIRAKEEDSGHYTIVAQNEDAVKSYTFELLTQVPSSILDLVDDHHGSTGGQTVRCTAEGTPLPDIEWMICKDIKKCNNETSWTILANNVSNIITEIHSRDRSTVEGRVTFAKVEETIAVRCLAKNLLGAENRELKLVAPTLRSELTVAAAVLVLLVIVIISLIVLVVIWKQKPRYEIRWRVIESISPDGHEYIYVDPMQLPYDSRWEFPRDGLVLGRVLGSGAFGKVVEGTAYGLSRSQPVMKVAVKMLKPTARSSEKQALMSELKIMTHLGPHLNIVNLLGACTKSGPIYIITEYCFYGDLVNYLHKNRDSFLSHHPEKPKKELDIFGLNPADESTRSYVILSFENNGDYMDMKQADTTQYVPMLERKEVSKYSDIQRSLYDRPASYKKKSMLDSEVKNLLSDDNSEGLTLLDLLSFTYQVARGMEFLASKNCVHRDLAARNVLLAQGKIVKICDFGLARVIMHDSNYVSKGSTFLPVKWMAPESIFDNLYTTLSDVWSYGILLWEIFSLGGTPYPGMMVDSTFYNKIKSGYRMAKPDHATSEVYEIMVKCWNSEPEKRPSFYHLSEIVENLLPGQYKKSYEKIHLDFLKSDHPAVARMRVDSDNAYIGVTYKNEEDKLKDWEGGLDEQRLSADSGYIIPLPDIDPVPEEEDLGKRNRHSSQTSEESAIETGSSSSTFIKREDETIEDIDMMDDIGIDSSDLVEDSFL
Procedure: as §2

[10] = biological target: PDGFRα(V561D)(h) (Homo sapiens, UniProt P16234, V561D); assay: Kinase profile screen; format: biochemical; conditions: 1 uM
PDGFRα(V561D)(h), sequence (P16234 24-1089 V561D): as the sequence (P16234 24-1089 D842V) above, with V538D, V819D counted along it
Procedure: as §2

[11] = tested on: mutant forms of c-Kit; assay: Activity against mutant c-Kit (stated); format: biochemical
[12] = tested on: SF-767 glioblastoma multiformes cells; assay: MTS cell death assay; format: cell-based
Procedure: To evaluate the ability of MP470 to enhance clinical therapy we used MP470 in combination with ionizing radiation on culture cancer cells. SF-767 glioblastoma multiformes cells were treated with 1 μM MP470, 800c Gy IR, or a combination of both.

[13] = tested on: Rad51 in SF-767 cancer cells; assay: Western blotting for Rad51 after IR; format: cell-based; conditions: SF-767 cells pretreated with MP470
[14] = biological target: c-met (Homo sapiens, UniProt P08581); assay: Activity against c-met (stated); format: biochemical
c-met, sequence (P08581 25-1390): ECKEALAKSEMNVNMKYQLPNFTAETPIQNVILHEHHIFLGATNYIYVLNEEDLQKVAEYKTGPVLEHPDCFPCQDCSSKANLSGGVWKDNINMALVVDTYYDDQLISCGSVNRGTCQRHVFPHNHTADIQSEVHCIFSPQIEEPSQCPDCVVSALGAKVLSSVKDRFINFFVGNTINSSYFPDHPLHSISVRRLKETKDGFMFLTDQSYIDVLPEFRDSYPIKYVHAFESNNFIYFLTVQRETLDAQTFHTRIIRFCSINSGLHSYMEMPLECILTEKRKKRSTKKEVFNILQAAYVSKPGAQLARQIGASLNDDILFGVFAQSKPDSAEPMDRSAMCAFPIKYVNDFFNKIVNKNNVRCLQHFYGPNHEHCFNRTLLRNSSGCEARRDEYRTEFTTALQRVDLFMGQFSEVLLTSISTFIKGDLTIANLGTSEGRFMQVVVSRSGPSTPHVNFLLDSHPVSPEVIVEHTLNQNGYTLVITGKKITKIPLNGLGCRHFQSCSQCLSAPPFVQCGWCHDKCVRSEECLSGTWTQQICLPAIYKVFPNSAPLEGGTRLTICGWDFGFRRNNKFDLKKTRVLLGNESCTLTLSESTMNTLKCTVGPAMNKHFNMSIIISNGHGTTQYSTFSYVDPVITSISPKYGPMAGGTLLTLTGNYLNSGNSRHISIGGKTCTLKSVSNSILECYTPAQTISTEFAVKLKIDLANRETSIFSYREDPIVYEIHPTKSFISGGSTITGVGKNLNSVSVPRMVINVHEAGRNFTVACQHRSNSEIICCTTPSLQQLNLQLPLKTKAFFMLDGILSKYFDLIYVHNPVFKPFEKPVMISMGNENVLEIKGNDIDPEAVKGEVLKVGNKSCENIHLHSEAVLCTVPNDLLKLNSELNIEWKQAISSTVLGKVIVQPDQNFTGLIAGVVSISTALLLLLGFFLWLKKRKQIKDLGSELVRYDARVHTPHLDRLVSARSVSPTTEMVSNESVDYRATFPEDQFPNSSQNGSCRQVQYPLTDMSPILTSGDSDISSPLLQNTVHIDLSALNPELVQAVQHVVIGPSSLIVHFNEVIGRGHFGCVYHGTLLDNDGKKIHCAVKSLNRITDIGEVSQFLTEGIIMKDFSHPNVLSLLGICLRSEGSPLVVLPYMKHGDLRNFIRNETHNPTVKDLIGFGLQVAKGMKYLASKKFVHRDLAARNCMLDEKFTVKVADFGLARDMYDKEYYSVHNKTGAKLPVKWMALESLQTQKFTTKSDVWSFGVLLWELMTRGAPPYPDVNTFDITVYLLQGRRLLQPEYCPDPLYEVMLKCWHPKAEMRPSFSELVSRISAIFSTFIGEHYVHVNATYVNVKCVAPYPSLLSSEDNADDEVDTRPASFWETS

[15] = biological target: T1, aurora-2 kinase; assay: Protein kinase inhibitory activity (Example 33, Kinase-Glo); format: biochemical; conditions: FIG. 27
Procedure: Percent activity was determined for individual compounds by comparing luminometer readings of drug-treated reactions to controls containing no drug (RLUNo Inhib) and no Aurora-2 enzyme (RLUNo Kinase) in the following equation:
After incubation, 50 μl of Kinase-Glo® (Promega, Inc., Madison, Wis.) solution was added to each reaction mixture and allowed to equilibrate for 10 minutes at room temperature. Kinase-Glo solution contains luciferase enzyme and luciferin, which react with ATP to produce light. Kinase activity is determined by quantifying the amount of ATP remaining in solution following the kinase reaction by measuring the relative light units (RLU) produced by luciferase using a luminometer (Thermo Electron Corporation, Vantaa, Finland).

[16] = biological target: c-Kit (Homo sapiens, UniProt P10721); assay: c-kit kinase inhibitory activity (stated in Example 32); format: biochemical
c-Kit, sequence (P10721 26-976): as the sequence (P10721 26-976 D816V) above, with V791D counted along it

COc1cc2ncnc(N3CCN(C(=S)Nc4ccc(S(=O)(=O)Nc5ncccn5)cc4)CC3)c2cc1OC [HPK16, 4-(6,7-Dimethoxy-quinazolin-4-yl)-piperazine-1-carbothioic acid [4-(pyrimidin-2-ylsulfamoly)-phenyl]-amide]
aurora-2 kinase inhibitory activity (in words) [1]: particularly effective inhibitors | degree of inhibition of aurora-2 kinase activity (rank among tested compounds) [1]: second highest inhibition | IC50 [1]: 4.7 µM

S=C(NCc1ccc2c(c1)OCO2)N1CCN(c2ncnc3c2oc2ccccc23)CC1 [HPK56, 4-Benzo[4,5]furo[3,2-d]pyrimidin-4-yl-piperazine-1-carbothioic acid (benzo[1,3]dioxol-5-ylmethyl)-amide]
phosphorylation of Akt ([2]; NIH 3T3, 4 hours, agent alone): reduced | phosphorylation of Akt ([2]; NIH 3T3, MP-470 in combination with Tarceva®): reduced | increase in apoptotic cells compared with non-treated cells [3]: > 3 fold | apoptosis ([4]; MiaPaCa-2, 1 μM): 71% | apoptosis ([4]; MiaPaCa-2, 100 μM): 81.4% | activity against mutant kinase [5]: activity | activity against mutant kinase [6]: activity | activity against mutant kinase [7]: activity | activity against mutant kinase [8]: activity | activity against mutant kinase [9]: activity | activity against mutant kinase [10]: activity | activity against mutant forms of c-Kit (in words) [11]: low nanomolar | cell death (MTS) ([12]; SF-767, 1 μM MP470 alone): induced cell death | increase of cell death over either agent alone ([12]; SF-767, 1 μM MP470 in combination with 800c Gy IR): more than 2 fold | Rad51 protein levels after exposure to IR [13]: remained low and near control level | activity against c-met (in words) [14]: low micromolar

COc1cc2[nH]c3ncnc(N4CCN(C(=S)Nc5ccc(S(=O)(=O)Nc6ncccn6)cc5)CC4)c3c2cc1OC [HPK62, 4-(6,7-Dimethoxy-9H-1,3,9-triaza-fluoren-4-yl)-piperazine-1-carbothioic acid [4-(pyrimidin-2-ylsulfamoyl)-phenyl]-amide]
kinase inhibitory activity (in words) [15]: highest activity | aurora-2 kinase inhibitory activity (in words) [1]: particularly effective inhibitors | degree of inhibition of aurora-2 kinase activity (rank among tested compounds) [1]: highest inhibition | IC50 [1]: 0.9 µM | aurora-2 kinase inhibitory activity (in words) ([1]; listed as II-2-6): low nanomolar | inhibitory activity against c-kit kinase (in words) [16]: low μM

From US8552018B2, “Substituted tricyclic compounds as protein kinase inhibitors” (Arizona Board of Regents on behalf of the University of …, priority 2003, dated 2013)
